{
  "source": "patent US12606829B2",
  "about": "“Compositions for herpesvirus transcriptional feedback circuit disruption and uses thereof” (priority 2018, dated 2026)",
  "key": {"[1]": {"system": "HSV-1 (17syn+ IE175-YFP)", "assay": "Single-round viral titering of HSV-1 in ARPE-19 cells (TCID50)", "assay_type": "cell-based", "from_the_text": "(§1) FIG. 7: Feedback circuit disruption interferes with viral replication even at high MOI and limits the evolution of resistance. (a) Flow cytometry of ARPE-19 cells nucleofected with the 28 bp dsDNA that titrates IE86 (C-DOT^C) or scrambled dsDNA sequence (C-DOT^Scram) and infected with a clinically derived CMV (TB40E) encoding an IE86-YFP (MOI=0.1) then analyzed at 2 days post infection (dpi). (b) Flow cytometry of ARPE-19 cells nucleofected with a 29 bp DNA to titrate IE175 (C-DOT^H) or scrambled dsDNA sequence (C-DOT^Scram) and infected with HSV-1 (17syn+strain) encoding an IE175-YFP (MOI=0.1) then analyzed at 2 dpi. (c) Single-round viral titering of CMV in the presence of 100 μM GCV, PBS, or 25 μM C-DOT^C (or C-DOT^Scram) at 4-days post infection under different initial MOIs. (d) Single-round viral titering of HSV-1 in presence of 100 μM ACV or 25 μM C-DOT^H (or C-DOT^Scram) at 4-days post infection under different HSV-1 MOIS. (e) Schematic of the continuous-culture experiment; ARPE-19 cells (+/−C-DOT) were infected with CMV or HSV-1 (0.1 MOI) and at 4-day post infection, supernatant was collected and was used to infect naïve ARPE-19 cells +/−C-DOT until day 60. (f) Continuous culture titers for CMV (TB40E-IE86-YFP) in the presence of C-DOT^C (red) or mock treatment (black). […]"}, "[2]": {"system": "CMV (TB40E-IE86-YFP)", "assay": "Single-round viral titering of CMV in ARPE-19 cells (TCID50)", "assay_type": "cell-based", "from_the_text": "as §1"}, "[3]": {"system": "MCMV", "assay": "MCMV replication in NIH 3T3 mouse fibroblast cells (TCID50)", "assay_type": "cell-based, murine CMV", "conditions": "NIH 3T3, MOI=0.1, 4 days post infection", "experimental": "(§2) FIG. 14: C-DOTs can be engineered to interfere with a broad range of species-specific herpesviruses including drug-resistant strains. (a) Sequence homology for the crs of human CMV, rhesus CMV (RhCMV), and murine CMV (MCMV). Sequence homology and divergence are represented. […] NIH 3T3 mouse fibroblast cells were nucleofected with either 28 bp C-DOT^MCMY, or C-DOT^Scram, or mock nucleofected 24 hours prior to MCMV infection at MOI=0.1. 4 days post infection, virus titers were assayed by TCID50. […] (Upper) Fluorescent micrographs, 4-day post nucleofection, of Telo-RF cells nucleofected with either a 28 bp C-DOT^RhCMV, or a C-DOT^Scram, or mock nucleofected and then infected with RhCMV (RhCMV 68.1 GFP) at MOI=0.1. (Lower) Virus titers assayed by TCID-50 at 4 days post infection. […] MRC-5 cells were nucleofected with C-DOT^C or C-DOT^Scram then infected 24-hour later with either the parent CMV AD169 (control) or GCV^R or FOS^R strains (CMV GDGrK17, CMV GDGrP53, CMV 759rD100-1, CMV PFArD100). Virus titers were assayed by TCID-50 at 4 days post infection."}, "[4]": {"system": "RhCMV 68.1 GFP", "assay": "RhCMV replication in Telo-RF cells (TCID-50)", "assay_type": "cell-based, rhesus CMV", "conditions": "MOI=0.1, 4 days post infection", "experimental": "as §2"}, "[5]": {"system": "CMV (TB40E-IE86-YFP or AD169)", "assay": "C-DOT antiviral effect under high and low cGAS-STING expression (MRC-5, ARPE-19)", "assay_type": "cell-based", "conditions": "MRC-5 (high) and ARPE-19 (low cGAS-STING activity), 4 days post infection", "experimental": "However, to verify that C-DOT activity is independent of cGAS-STING, C-DOTs were tested under conditions of high and low cGAS-STING expression and observed little difference in C-DOT antiviral effects and no effects for C-DOT^Scram in either setting (FIG. 15b).\nTotal RNA was extracted from cells and corresponding cDNA was quantified by qPCR using sequence specific primers for TLR9 (see Extended Data Table 1 for sequences). […] ARPE-19 (low cGAS-STING activity) and MRC-5 cells (high cGAS-STING activity) were nucleofected with C-DOTE or mock and infected with TB40E-IE86-YFP or AD169, respectively. Virus titers were assayed by TCID-50 at 4 days post infection. (c)C-DOT^C decreases CMV titers below detection by day 60 in the continuous culture setting. CMV titers from the continuous culture experiment followed out to day 60. ARPE-19 cells (+/−25 μM C-DOT) were infected with CMV (TB40E-IE86-YFP; MOI=0.1). (d) CMV and HSV-1 rapidly acquire resistance to approved antivirals (fomivirsen and acyclovir). Viral titers from the continuous culture experiment in the presence or absence of fomivirsen. Mock- or fomivirsen-nucleofected ARPE-19 cells were infected with CMV (TB40E-IE86-YFP; MOI=0.1); at 4 days post infection, supernatants were transferred to infect new naïve ARPE-19 cells (+/−fomivirsen) and transfers repeated every 4 days until day 44. […]"}, "[6]": {"system": "CMV", "assay": "Cell-death pathway analysis in the context of CMV infection", "assay_type": "cell-based", "from_the_text": "(§3) FIG. 10 provides a cell-death pathway analysis (pharmacological inhibitors). The mechanism of C-DOT-induced cell death (in the context of the virus infection) was identified using three separate approaches: (i) RNAseq: to identify misregulated expression patterns and the cell-death pathways these group into (ii) Antibody staining: for specific cell-death pathway markers (iii) Pharmacological inhibitors: of cell-death pathways to test which mitigate C-DOT-induced death. […] C-DOT alone caused cell death in CMV and HSV-1."}, "[7]": {"system": "HSV-1", "assay": "Cell-death pathway analysis in the context of HSV-1 infection", "assay_type": "cell-based", "from_the_text": "as §3"}},
  "note": "Oligonucleotides are written 5' to 3', each unit as a sugar letter and its base; * is a phosphorothioate linkage, no mark a phosphodiester; rarer units and linkages stand in square brackets, end groups in braces. Plain capitals give the bases only. d = 2'-deoxy (DNA)",
  "data": [
    {"molecule": "Nc1nc2c(ncn2COCCO)c(=O)[nH]1", "note": "[ACV, acyclovir]", "values": [
      {"measurement": "reduction in viral replication", "setting": "[1]; HSV-1, MOI=2, 100 μM ACV or 25 μM C-DOT^H, 4 days post infection", "value": "35-70 ×"}
    ]},
    {"molecule": "Nc1nc(O)c2ncn(COC(CO)CO)c2n1", "note": "[GCV, ganciclovir]", "values": [
      {"measurement": "reduction in viral replication", "setting": "[2]; MOI=2, 100 μM GCV or 25 μM C-DOT^C, 4 days post infection", "value": "35-70 ×"}
    ]},
    {"molecule": "C-DOT^MCMV: 28 bp dsDNA with murine CMV crs; Fw G*ACAGACCA*GCGTCGG*TACCGTACACG*A (SEQ ID NO: 9) (sense dG*dAdCdAdGdAdCdCdA*dGdCdGdTdCdGdG*dTdAdCdCdGdTdAdCdAdCdG*dA; antisense TCGTGTACGGTACCGACGCTGGTCTGTC; antisense: DNA, backbone not given here)", "values": [
      {"measurement": "effect on MCMV replication", "setting": "[3]", "value": "interferes with MCMV replication"}
    ]},
    {"molecule": "C-DOT^RhCMV: 28 bp dsDNA with rhesus CMV crs; Fw G*ACAGATCGT*TTAGGGAAC*CGTACACG*A (SEQ ID NO: 8) (sense dG*dAdCdAdGdAdTdCdGdT*dTdTdAdGdGdGdAdAdC*dCdGdTdAdCdAdCdG*dA; antisense TCGTGTACGGTTCCCTAAACGATCTGTC; antisense: DNA, backbone not given here)", "values": [
      {"measurement": "effect on RhCMV replication", "setting": "[4]", "value": "downregulates RhCMV replication"}
    ]},
    {"molecule": "C-DOT^Scram: scrambled dsDNA sequence, phosphorothioated, negative control; Fw A*TACCGCGTAA*CCAGAGGT*ATATAGGT*C (SEQ ID NO: 40) (sense ATACCGCGTAACCAGAGGTATATAGGTC; antisense GACCTATATACCTCTGGTTACGCGGTAT; phosphorothioate; (1)..(2) A Phosphorothioate bond is present between the nucleotides at positions 1 and 2; (11)..(12) A Phosphorothioate bond is present between the nucleotides at positions 11 and 12; (19)..(20) A Phosphorothioate bond is present between the nucleotides at positions 19 and 20; (27)..(28) A Phosphorothioate bond is present between the nucleotides at positions 27 and 28; (1)..(2) A Phosphorothioate bond is present between the nucleotides at positions 1 and 2.; (9)..(10) A Phosphorothioate bond is present between the nucleotides at positions 9 and 10.; (17)..(18) A …)", "values": [
      {"measurement": "antiviral effects", "setting": "[2]", "value": "did not exhibit antiviral effects"},
      {"measurement": "antiviral effects", "setting": "[1]; HSV-1", "value": "did not exhibit antiviral effects"},
      {"measurement": "antiviral effects under high and low cGAS-STING expression", "setting": "[5]", "value": "no effects"},
      {"measurement": "cell death", "setting": "[6]", "value": "minimal cell death"},
      {"measurement": "cell death", "setting": "[7]", "value": "minimal cell death"}
    ]}
  ]
}
